Strand notation (5' to 3'): a small letter for the sugar, then the base; units joined by * are phosphorothioate-linked, units joined directly phosphodiester-linked; [ ] holds rarer units or linkages, { } end groups; capitals alone tell only the bases. k = constrained ethyl (cEt); [5mC] = 5-methylcytosine; d = 2'-deoxy (DNA)
tested on: human SMAD7 mRNA; assay: Antisense inhibition of human SMAD7 mRNA expression in Hep3B cells by 3-10-3 cEt gapmers, 10,000 nM, electroporation (Example 2); type: cell-based; conditions: Hep3B cells, 10,000 nM antisense oligonucleotide, electroporation, approximately 24 hours, RT-PCR primer probe set RTS5062, relative to untreated control cells
Method in brief: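 Hep3B cells (20,000/well) were electroporated with 10,000 nM 3-10-3 cEt gapmer (16-mer, phosphorothioate, 5-methylcytosines) and harvested after about 24 h. SMAD7 mRNA quantified by RT-qPCR with primer probe set RTS5062, normalized to total RNA by RiboGreen; percent inhibition relative to untreated cells.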

Substance	% Inhibition
798859 (k[5mC]*kG*kG*dA*d[5mC]*dT*dT*dG*dA*dT*dG*dA*dA*kG*kA*kT; antisense) [compound 798859]	14%
799973 (kA*kT*kA*dA*dT*dT*d[5mC]*dA*d[5mC]*dA*dA*dG*dG*kA*k[5mC]*k[5mC]; antisense) [compound 799973]	0%
799856 (kG*k[5mC]*kA*dA*dG*d[5mC]*d[5mC]*dA*dA*dG*dT*dG*dT*k[5mC]*k[5mC]*kA; antisense) [compound 799856]	43%
799838 (antisense kT*kT*kG*d[5mC]*dA*d[5mC]*d[5mC]*d[5mC]*d[5mC]*d[5mC]*dA*dT*dA*kA*k[5mC]*kT) [compound 799838]	2%
800089 (antisense kA*kG*kG*dA*dA*d[5mC]*d[5mC]*dT*dA*dT*d[5mC]*dT*dG*kG*kT*kA) [compound 800089]	0%

same assay, conditions: Hep3B cells, electroporation with 10,000 nM antisense oligonucleotide, approximately 24 hours, RTS5062, percent inhibition of SMAD7 mRNA relative to untreated control cells

Substance	% Inhibition
799730 (antisense kT*kA*kA*dA*dT*dT*dG*dA*dG*dA*dA*d[5mC]*dT*kG*kT*kG) [compound 799730]	60%
799553 (k[5mC]*k[5mC]*k[5mC]*d[5mC]*dG*d[5mC]*dT*dA*dG*dG*dG*dA*dA*k[5mC]*kA*kA; antisense) [compound 799553]	46%
799591 (kA*kT*kT*dA*dG*dT*dA*dA*dA*dT*d[5mC]*dA*dA*kG*kA*kG; antisense) [compound 799591]	56%
799524 (antisense kA*kT*k[5mC]*dA*dA*dG*dG*dG*d[5mC]*dA*dG*dA*dA*kG*kG*k[5mC]) [compound 799524]	23%
799761 (antisense kT*kG*kT*d[5mC]*dA*dT*dT*dA*dG*dA*dA*d[5mC]*dA*kA*kT*kG) [compound 799761]	35%

same assay, conditions: Hep3B cells, electroporation with 10,000 nM antisense oligonucleotide, approximately 24 hours, SMAD7 mRNA by RT-PCR (RTS5062), relative to untreated control cells

Substance	% Inhibition
798671 (antisense kA*kG*k[5mC]*dG*dG*d[5mC]*dG*dG*d[5mC]*dG*dG*d[5mC]*d[5mC]*k[5mC]*kG*kA) [compound 798671]	61%
798830 (kG*kA*kA*dG*dA*dT*dA*dT*d[5mC]*d[5mC]*dA*dG*dA*kG*kA*kG; antisense) [compound 798830]	17%
799434 (antisense kT*kG*kA*dA*dA*d[5mC]*dA*d[5mC]*dG*dG*dG*dA*dA*kG*k[5mC]*kA) [compound 799434]	37%
798834 (kA*kA*kA*dA*dG*d[5mC]*d[5mC]*dA*dT*dT*d[5mC]*d[5mC]*d[5mC]*k[5mC]*kT*kG; antisense) [compound 798834]	55%
830171 (antisense kT*kG*k[5mC]*dT*d[5mC]*dT*dG*dT*dT*dT*dG*dG*dA*k[5mC]*kA*kA) [compound 830171]	26%
799241 (kA*kT*kT*d[5mC]*dT*d[5mC]*d[5mC]*dG*dT*dA*dT*dT*dT*kA*k[5mC]*kT; antisense) [compound 799241]	16%
799945 (antisense kA*kG*k[5mC]*dT*dT*dT*dT*dA*dG*dA*dG*d[5mC]*dT*kG*k[5mC]*kG) [compound 799945]	5%
798845 (k[5mC]*kG*k[5mC]*dA*d[5mC]*d[5mC]*dT*dT*d[5mC]*dT*dG*d[5mC]*dA*k[5mC]*k[5mC]*kA; antisense) [compound 798845]	18%
830098 (kA*kG*kA*d[5mC]*dA*dA*dA*d[5mC]*d[5mC]*dT*dT*d[5mC]*d[5mC]*kG*kA*kA; antisense) [compound 830098]	37%
799513 (antisense kT*kA*k[5mC]*d[5mC]*dT*dT*dT*dA*dG*dA*dT*dT*dG*k[5mC]*kA*kT) [compound 799513]	66%
830109 (kA*kT*kT*d[5mC]*dA*dT*dT*dA*dA*dG*d[5mC]*d[5mC]*d[5mC]*kG*k[5mC]*kT; antisense) [compound 830109]	44%
830029 (antisense kT*k[5mC]*kA*d[5mC]*dT*d[5mC]*d[5mC]*dA*d[5mC]*dT*d[5mC]*dA*d[5mC]*k[5mC]*kG*kA) [compound 830029]	56%
830042 (antisense k[5mC]*kA*kG*dG*dT*dT*dA*dA*dT*d[5mC]*dA*d[5mC]*dT*kT*k[5mC]*k[5mC]) [compound 830042]	64%
798700 (antisense k[5mC]*k[5mC]*k[5mC]*d[5mC]*dG*d[5mC]*dA*dG*d[5mC]*dT*d[5mC]*dG*d[5mC]*k[5mC]*kT*k[5mC]) [compound 798700]	52%
830188 (antisense k[5mC]*k[5mC]*kA*d[5mC]*dT*dT*dA*dG*d[5mC]*dA*dA*dG*dG*kA*kG*k[5mC]) [compound 830188]	50%
798863 (kG*kG*kG*dT*dT*dG*dT*d[5mC]*d[5mC]*dA*dG*dT*dG*kT*kG*kG; antisense) [compound 798863]	41%

same assay, conditions: Hep3B cells, electroporation with 10,000 nM antisense oligonucleotide, approximately 24 hours, primer probe set RTS5062, relative to untreated control cells

Substance	% Inhibition	% inhibition of SMAD7 mRNA expression
799206 (kT*kA*kT*dA*dT*dT*dT*dA*d[5mC]*dA*dA*dG*dT*kA*kA*kT; antisense) [compound 799206]	0%	–
799441 (antisense k[5mC]*kT*kA*dG*dA*dA*dA*dA*dG*dT*dT*dA*dA*kG*kA*kG) [compound 799441]	–	22%
798950 (antisense k[5mC]*kA*kA*dA*dG*dA*dG*d[5mC]*dG*dA*dA*dA*d[5mC]*kA*kA*kA) [compound 798950]	–	0%
799131 (antisense k[5mC]*kA*kT*dG*dT*d[5mC]*d[5mC]*d[5mC]*dT*d[5mC]*d[5mC]*d[5mC]*dA*kG*kG*kG) [compound 799131]	–	6%
799247 (antisense kA*k[5mC]*kG*dA*d[5mC]*dA*dG*dT*dA*dT*d[5mC]*dT*dG*kG*kG*k[5mC]) [compound 799247]	–	61%
799383 (antisense k[5mC]*kA*k[5mC]*dA*dA*dA*dA*dA*d[5mC]*d[5mC]*dA*dA*dG*kG*kT*kT) [compound 799383]	–	40%
799004 (antisense kG*k[5mC]*kA*d[5mC]*dA*d[5mC]*dA*d[5mC]*dA*dG*d[5mC]*d[5mC]*dG*k[5mC]*kA*k[5mC]) [compound 799004]	–	0%
798688 (antisense kG*kT*k[5mC]*d[5mC]*dT*dG*dA*dA*d[5mC]*dA*dT*dG*d[5mC]*kG*kG*kG) [compound 798688]	–	68%
798663 (kT*kG*k[5mC]*dG*d[5mC]*dT*d[5mC]*d[5mC]*dG*dG*d[5mC]*dT*dG*k[5mC]*k[5mC]*k[5mC]; antisense) [compound 798663]	–	41%
799024 (k[5mC]*kT*kT*dG*dG*dG*dA*d[5mC]*dT*dG*d[5mC]*dA*dA*kA*k[5mC]*k[5mC]; antisense) [compound 799024]	–	0%
799221 (kT*kT*kT*dA*dA*dT*dT*dT*dG*dG*d[5mC]*dA*dT*kT*kT*kG; antisense) [compound 799221]	0%	–
790626 (kG*kA*kT*dA*dA*d[5mC]*dA*d[5mC]*d[5mC]*d[5mC]*dA*dT*dA*kG*kA*kA; antisense) [compound 790626]	–	0%
799122 (antisense k[5mC]*kT*kG*dG*d[5mC]*d[5mC]*dT*dA*dA*dT*dA*dG*d[5mC]*kA*kG*kA) [compound 799122]	29%	–
798979 (antisense kG*kT*kG*dT*dT*dT*dG*dG*dT*dG*dG*dT*dG*k[5mC]*kT*kT) [compound 798979]	19%	–
798986 (antisense kG*kA*kT*dG*dA*d[5mC]*d[5mC]*dG*d[5mC]*d[5mC]*d[5mC]*d[5mC]*d[5mC]*k[5mC]*kT*kT) [compound 798986]	–	34%
799050 (antisense kA*k[5mC]*kA*dG*dG*d[5mC]*d[5mC]*d[5mC]*dG*dT*dG*dT*d[5mC]*k[5mC]*kT*kT) [compound 799050]	–	36%

same assay, conditions: Hep3B cells, electroporation, 10,000 nM antisense oligonucleotide, approximately 24 hours, RTS5062, relative to untreated control cells

Substance	% inhibition of SMAD7 mRNA expression
799598 (k[5mC]*kA*kA*d[5mC]*dT*d[5mC]*dT*dG*dA*dA*d[5mC]*dG*dG*kA*kA*kA; antisense) [compound 799598]	39%
799812 (antisense k[5mC]*kA*kG*dA*d[5mC]*dA*dG*d[5mC]*dT*dA*dA*dT*d[5mC]*kT*kG*k[5mC]) [compound 799812]	39%
799793 (kG*kT*kT*d[5mC]*dT*dT*d[5mC]*d[5mC]*dT*dG*d[5mC]*dT*dG*kT*k[5mC]*kA; antisense) [compound 799793]	30%

same assay, conditions: SMAD7 mRNA, Hep3B cells, 10,000 nM antisense oligonucleotide, electroporation, approximately 24 hours, primer probe set RTS5062, relative to untreated control cells

Substance	% Inhibition
801145 (antisense kA*k[5mC]*kG*d[5mC]*dT*dG*dT*dG*dG*dT*dT*dT*dG*kT*kG*kG) [compound 801145]	0%
790791 (kG*kG*kG*d[5mC]*dA*d[5mC]*dA*d[5mC]*d[5mC]*dA*d[5mC]*d[5mC]*dT*kG*k[5mC]*k[5mC]; antisense) [compound 790791]	7%

same assay, conditions: SMAD7 mRNA, Hep3B cells, electroporation with 10,000 nM antisense oligonucleotide, approximately 24 hours, primer probe set RTS5062, relative to untreated control cells

Substance	% Inhibition
829963 (k[5mC]*k[5mC]*kT*dA*dG*dT*dT*d[5mC]*dG*d[5mC]*dA*dG*dA*kG*kT*k[5mC]; antisense) [compound 829963]	46%
829835 (k[5mC]*kA*kG*dT*dG*dT*dG*dA*d[5mC]*d[5mC]*dG*dA*dT*k[5mC]*k[5mC]*k[5mC]; antisense) [compound 829835]	52%
829921 (antisense kT*k[5mC]*kA*dT*dA*d[5mC]*dG*dA*dG*dT*dG*dT*dA*kT*kG*kA) [compound 829921]	10%

From patent US10517889B2, “Modulators of SMAD7 expression” (Ionis Pharmaceuticals, Inc., priority 2017, dated 2019)
